We go through 15 compounds from ChEMBL document CHEMBL6120946, “From Hit to Lead: Discovery of First-In-Class Furanone Glycoside D228 Derived from Chimonanthus salicifolius for the Treatment of Inflammatory Bowel Disease” (J Med Chem, 2024).

The nature of series [1]: Immunosuppressive activity in mouse T-lymphocyte assessed as reduction in concanavalin A-induced cell proliferation incubated for 48 hrs. The format is functional, cell-based.
A short description of series [2]: Cytotoxicity against mouse Splenocyte by MTT assay. The format is toxicity, cell-based. The note with it: splenocytes.
A further series concerns B-cell line. The experiment in a line: Immunosuppressive activity in mouse B-lymphocyte assessed as reduction in LPS-induced cell proliferation incubated for 48 hrs. The format is functional, cell-based.
Series [3] can be described thus: Selectivity ratio of CC50 for cytotoxicity against mouse Splenocyte to IC50 for immunosuppressive activity in mouse B-lymphocyte. To be noted: splenocytes (CC50) and B-lymphocytes (IC50). The format is toxicity.
The nature of series [4]: Selectivity ratio of CC50 for cytotoxicity against mouse Splenocyte to IC50 for immunosuppressive activity in mouse T-lymphocyte. The format is toxicity. The note with it: splenocytes (CC50) and T-lymphocytes (IC50).
Series [5] concerns Mus musculus. The experiment in a line: Antiinflammatory activity in DSS-induced male C57BL/6 mouse model of inflammatory bowel disease assessed as recovery from body weight loss at 40 mg/kg/day, po measured after 7 days. The format is functional, organism-based. The note with it: time 7.0 day.
Series [6] has as its system Mus musculus. The experiment in a line: Antiinflammatory activity in DSS-induced male C57BL/6 mouse model of inflammatory bowel disease assessed as recovery in colon length at 40 mg/kg/day, po measured after 7 days relative to control. To be noted: time 7 day. The format is functional.
Series [7] concerns Mus musculus. The experiment in a line: Antiinflammatory activity in DSS-induced male C57BL/6 mouse model of inflammatory bowel disease assessed as recovery from body weight loss at 40 mg/kg/day, po measured after 7 days relative to control. The format is functional. To be noted: time 7 day.
In series [8] the test system is Mus musculus. The experiment in a line: Antiinflammatory activity in male C57BL/6 mouse model of inflammatory bowel disease assessed as recovery of DSS-induced body weight loss at 40 mg/kg/day, po via gavage measured after 14 days relative to control. The format is functional. To be noted: time 14 day.
Series [9] has as its system Mus musculus. The experiment in a line: Antiinflammatory activity in DSS-induced male C57BL/6 mouse model of inflammatory bowel disease assessed as restoration of colon length at 40 mg/kg/day, po via gavage measured after 14 days relative to control. The format is functional. The note with it: time 14 day.
Series [10] has as its system Mus musculus. The experiment in a line: Antiinflammatory activity in DSS-induced male C57BL/6 mouse model of inflammatory bowel disease assessed as increase in colon length at 7.5 mg/kg/day, po via gavage measured upto 14 days relative to control. The format is functional. To be noted: time <= 14 day.
In series [11] the test system is Mus musculus. The experiment in a line: Antiinflammatory activity in DSS-induced male C57BL/6 mouse model of inflammatory bowel disease assessed as reduction in diarrhea at 7.5 to 15 mg/kg/day, po via gavage measured upto 14 days. To be noted: dose 7.5-15 mg/kg/day, time <= 14.0 day. The format is functional, organism-based.
Series [12] relates to Mus musculus. The experiment in a line: Antiinflammatory activity in DSS-induced male C57BL/6 mouse model of inflammatory bowel disease assessed as reduction in weight loss at 7.5 to 15 mg/kg/day, po via gavage measured upto 14 days. The format is functional, organism-based. The note with it: dose 7.5-15 mg/kg/day, time <= 14.0 day.
Series [13] has as its system Mus musculus. The experiment in a line: Antiinflammatory activity in DSS-induced male C57BL/6 mouse model of inflammatory bowel disease assessed as increase in colon length at 15 mg/kg/day, po via gavage measured upto 14 days relative to control. The format is functional. To be noted: time <= 14 day.
Series [14] relates to Mus musculus. The experiment in a line: Antiinflammatory activity in DSS-induced male C57BL/6 mouse model of inflammatory bowel disease assessed as reduction of bloody stool at 7.5 to 15 mg/kg/day, po via gavage measured upto 14 days. The format is functional, organism-based. To be noted: dose 7.5-15 mg/kg/day, time <= 14.0 day.
Series [15] deals with Mus musculus. The experiment in a line: Antiinflammatory activity in DSS-induced male C57BL/6 mouse model of inflammatory bowel disease assessed as increase in colon length at 250 mg/kg/day, po via gavage measured upto 14 days relative to control. The format is functional. The note with it: time <= 14 day.

The source made the active and inactive calls. The rule behind the calls is not given here.

Turning to `CC1=C(O)C(=O)C(=C2CCNCC2)O1`, the IC50 (in series [1]; with B-cell line) was > 100 µM throughout. Also, the CC50 in series [2] was found to be 205 µM.
With `CC1=C(O)C(=O)C(=C2CCOCC2)O1`, the IC50 (in series [1]; in the series with B-cell line) was > 100 µM each time. In addition, in series [2], the midpoint of cytotoxicity, the CC50, lay at 232 µM.
In the case of `CC(=O)OC[C@H]1O[C@@H](OC2=C(C)OC(=C3CCCC3)C2=O)[C@H](OC(C)=O)[C@@H](OC(C)=O)[C@@H]1OC(C)=O`, the IC50 stood at 23.4 µM in series [1] and 16.3 µM with B-cell line. Also, the selectivity ratio came out at 2.73 in [3] and 1.83 in [4]. Besides, in the series with Mus musculus [5], the outcome was Active. The same compound gave a CC50 in series [2] of 40 µM. Moreover, the Activity amounted to 45.2% in the series on Mus musculus [6] and 62.5% in the series on Mus musculus [7].
For the compound `CCOC(=O)OC[C@H]1O[C@@H](OC2=C(C)OC(=C(C)C)C2=O)[C@H](O)[C@@H](O)[C@@H]1O`, the IC50 (in series [1]; in the series on B-cell line) was > 100 µM throughout. Besides, the outcome with Mus musculus [5] was Active. For the same compound, the CC50 in series [2] worked out at 182 µM. Further, the values for the Activity with Mus musculus [6] and with Mus musculus [7] were 13.3% and 47.6%, respectively.
`COC(=O)[C@H]1O[C@@H](OC2=C(C)OC(=C(C)C)C2=O)[C@H](OC(C)=O)[C@@H](OC(C)=O)[C@@H]1OC(C)=O`: the IC50 (in series [1]; in the series with B-cell line) was > 100 µM each time. For the same compound, the Activity in the series with Mus musculus [8] came to 44.8%; in the series on Mus musculus [9] it was 9.5%. For the same compound, the CC50 in [2] was determined as 212 µM.
For `CC(=O)OC[C@H]1O[C@@H](OC2=C(C)OC(=C3CCCCC3)C2=O)[C@H](OC(C)=O)[C@@H](OC(C)=O)[C@@H]1OC(C)=O`, the half-inhibitory concentration (IC50) worked out at 4720 µM in [1] and 54 µM in the series with B-cell line. Moreover, the values for the selectivity ratio in [3] and in series [4] were 0.79 and 0.92, respectively. Also, the result in the series with Mus musculus [5] was Active. In [2], this compound showed a CC50 of 35.6 µM. The Activity in the series with Mus musculus [6] stood at 54.8%; in the series with Mus musculus [7], 30.7%.
With `CC(=O)OC[C@H]1O[C@@H](OC2=C(C)OC(=C3CCN(C(C)=O)CC3)C2=O)[C@H](OC(C)=O)[C@@H](OC(C)=O)[C@@H]1OC(C)=O`, the results for the IC50 (in [1]; in the series on B-cell line) were 48.3 µM and 24.9 µM, respectively. Besides, the selectivity ratio came out at 1.74 in series [3] and 1.23 in series [4]. Besides, in the series with Mus musculus [5], the result was Active. This compound gave a CC50 in [2] of 38.7 µM. Moreover, the figures for the Activity in the series with Mus musculus [6] and in the series on Mus musculus [7] were 26.7% and 13.9%, respectively.
`CC1=C(O)C(=O)C(=C2CCCC2)O1`: the Activity came to 99.2% with Mus musculus [10] and 98.4% with Mus musculus [13]. In addition, the IC50 (in series [1]; in the series on B-cell line) was > 100 µM in each case. Moreover, the result with Mus musculus [11], in the series on Mus musculus [12] and in the series with Mus musculus [14] was Active. In series [2], the midpoint of cytotoxicity, the CC50, lay at 248 µM.
For `CC(=O)OC[C@H]1O[C@@H](OC2=C(C)OC(=C(C)C)C2=O)[C@H](OC(C)=O)[C@@H](OC(C)=O)[C@H]1OC(C)=O`, the IC50 is 201 µM in series [1] and > 100 µM with B-cell line. Further, the Activity in the series on Mus musculus [8] was 44.8%; with Mus musculus [9] it was 25.4%. Moreover, the selectivity ratio in series [4] came to 1.06. Also, the CC50 in series [2] stood at 183 µM.
As to `CC1=C(O)C(=O)C(=C2CCCCC2)O1`, the IC50 (in [1]; with B-cell line) was > 100 µM in each case.
As to `O=C(O)c1cc(/N=N/c2ccc(S(=O)(=O)Nc3ccccn3)cc2)ccc1O` [SULFASALAZINE], the Activity is 24% in the series with Mus musculus [8], 86.7% with Mus musculus [15] and 9.5% in the series on Mus musculus [9].
Take `C/C=C/C[C@@H](C)[C@@H](O)[C@H]1C(=O)N[C@@H](CC)C(=O)N(C)CC(=O)N(C)[C@@H](CC(C)C)C(=O)N[C@@H](C(C)C)C(=O)N(C)[C@@H](CC(C)C)C(=O)N[C@@H](C)C(=O)N[C@H](C)C(=O)N(C)[C@@H](CC(C)C)C(=O)N(C)[C@@H](CC(C)C)C(=O)N(C)[C@@H](C(C)C)C(=O)N1C` [CYCLOSPORINE]: in the series on B-cell line, the IC50 turned out to be 0.46 µM.
As for `CC(=O)OC[C@H]1O[C@@H](OC2=C(C)OC(=C3CCOCC3)C2=O)[C@H](OC(C)=O)[C@@H](OC(C)=O)[C@@H]1OC(C)=O`, the IC50 in series [1] stood at 43.6 µM; in the series with B-cell line it was 26.4 µM. Moreover, the selectivity ratio was found to be 3.11 in [3] and 1.87 in series [4]. Moreover, the result with Mus musculus [5] was Active. This compound displayed a CC50 in series [2] of 71.9 µM. For the same compound, the values for the Activity in the series with Mus musculus [6] and with Mus musculus [7] were 30.5% and 26.3%, respectively.
For the compound `CC(=O)OC[C@H]1O[C@@H](OC2=C(C)OC(=C3CCNCC3)C2=O)[C@H](OC(C)=O)[C@@H](OC(C)=O)[C@@H]1OC(C)=O`, the values for the IC50 (in series [1]; with B-cell line) were 29.1 µM and 41.1 µM, respectively. For the same compound, the selectivity ratio in series [3] worked out at 0.37; in series [4], 0.8. Further, the result in the series on Mus musculus [5] was Active. This compound also displayed a CC50 in [2] of 15.5 µM. Also, the values for the Activity in the series on Mus musculus [6] and with Mus musculus [7] were 52.9% and 28%, respectively.
As to `CC(C)=C1OC(C)=C(O[C@@H]2O[C@H](COC(=O)C(C)(C)C)[C@@H](OC(=O)C(C)(C)C)[C@H](OC(=O)C(C)(C)C)[C@H]2OC(=O)C(C)(C)C)C1=O`, the IC50 (in series [1]; in the series on B-cell line) was > 100 µM each time. Also, the results for the Activity in the series with Mus musculus [8] and in the series on Mus musculus [9] were 41.6% and 3.2%, respectively. Also, the CC50 in [2] was > 200 µM.
